biological target: Recombinant human KIF18A (1-467 His-tagged) protein (Homo sapiens (Human), UniProt Q8NI77); test: KIF18A Enzyme Assay: microtubule-stimulated ATPase activity (ADP-Glo); conditions: read-out: KIF18A ATPase IC50; 30 nM KIF18A, 30 μg/mL pig microtubules, ATP at Km 75 μM, ADP-Glo luminescence
Sequence (Q8NI77 1-467): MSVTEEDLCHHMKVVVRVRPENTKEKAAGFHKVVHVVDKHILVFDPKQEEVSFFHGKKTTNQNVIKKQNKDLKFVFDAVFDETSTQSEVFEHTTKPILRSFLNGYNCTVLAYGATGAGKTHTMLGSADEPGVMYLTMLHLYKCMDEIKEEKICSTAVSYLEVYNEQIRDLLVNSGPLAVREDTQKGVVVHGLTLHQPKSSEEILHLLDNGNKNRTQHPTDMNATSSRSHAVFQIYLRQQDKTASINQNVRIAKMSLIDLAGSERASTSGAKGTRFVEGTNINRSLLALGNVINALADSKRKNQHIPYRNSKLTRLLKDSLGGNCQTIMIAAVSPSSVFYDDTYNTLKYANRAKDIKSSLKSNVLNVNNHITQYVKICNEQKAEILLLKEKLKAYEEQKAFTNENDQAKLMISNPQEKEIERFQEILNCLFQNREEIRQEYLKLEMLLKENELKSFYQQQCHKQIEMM
Sequence (P02550 whole entry partner): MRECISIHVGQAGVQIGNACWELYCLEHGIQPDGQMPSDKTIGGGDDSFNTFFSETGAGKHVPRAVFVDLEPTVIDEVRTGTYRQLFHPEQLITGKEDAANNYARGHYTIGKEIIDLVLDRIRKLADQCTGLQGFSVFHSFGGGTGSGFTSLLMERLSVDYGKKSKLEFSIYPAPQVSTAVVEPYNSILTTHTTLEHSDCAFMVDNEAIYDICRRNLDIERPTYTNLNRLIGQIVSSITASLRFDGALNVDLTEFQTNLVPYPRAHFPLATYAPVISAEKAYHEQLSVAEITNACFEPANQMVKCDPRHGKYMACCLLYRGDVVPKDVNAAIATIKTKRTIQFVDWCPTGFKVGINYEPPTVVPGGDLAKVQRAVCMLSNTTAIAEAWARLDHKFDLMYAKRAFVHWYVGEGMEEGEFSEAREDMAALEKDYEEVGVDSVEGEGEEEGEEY
Sequence (P02554 whole entry partner): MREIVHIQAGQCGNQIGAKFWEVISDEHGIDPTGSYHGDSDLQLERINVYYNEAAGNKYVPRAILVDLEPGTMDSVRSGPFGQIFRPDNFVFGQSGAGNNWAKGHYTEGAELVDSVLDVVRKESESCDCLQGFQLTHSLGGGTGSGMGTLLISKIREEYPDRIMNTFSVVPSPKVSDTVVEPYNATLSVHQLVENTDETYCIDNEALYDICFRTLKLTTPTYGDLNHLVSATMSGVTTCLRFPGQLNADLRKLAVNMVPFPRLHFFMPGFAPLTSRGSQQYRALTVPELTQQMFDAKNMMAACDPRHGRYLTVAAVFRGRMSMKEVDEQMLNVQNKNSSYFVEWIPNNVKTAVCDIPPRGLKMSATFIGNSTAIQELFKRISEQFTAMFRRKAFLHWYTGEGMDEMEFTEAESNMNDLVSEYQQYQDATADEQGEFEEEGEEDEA
Text: KIF18A Enzyme Assay: Microtubule-stimulated ATPase activity assay is used to measure KIF18A enzyme activity after treatment with compound. Compounds were 2-fold serially diluted in DMSO (Sigma Inc) over 22-point concentration range. […] The assay measures ADP formed from the ATPase reaction.

| Structure (SMILES) | IC50 [nM] |
| --- | --- |
| Cc1cc(NC(=O)c2cc(Cl)c(NS(=O)(=O)CCO)cc2N2CCC3(CC2)CC3)nc(N2CCC(F)(F)CC2)n1 [Example 6-34, 5-Chloro-N-(2-(4,4-difluoropiperidin-1-yl)-6-methylpyrimidin-4-yl)-4-((2-hydroxyethyl)sulfonamido)-2-(6-azaspiro[2.5]octan-6-yl)benzamide] | 92.2 |
| Cc1cc(NC(=O)c2ccc(S(=O)(=O)NCCO)cc2N2CCC3(CC2)CC3)nc(OCCC(F)(F)F)n1 [Example 17-2, 4-(N-(2-Hydroxyethyl)sulfamoyl)-N-(6-methyl-2-(3,3,3-trifluoropropoxy)pyrimidin-4-yl)-2-(6-azaspiro[2.5]octan-6-yl)benzamide] | 42 |
| Cc1cc(NC(=O)c2ccc(NS(=O)(=O)CCO)cc2N2CCC3(CC2)CC3)nc(N2CCCC2)n1 [Example 11-26, 4-((2-Hydroxyethyl)sulfonamido)-N-(6-methyl-2-(pyrrolidin-1-yl)pyrimidin-4-yl)-2-(6-azaspiro[2.5]octan-6-yl)benzamide] | 71.6 |
| Cc1cc(NC(=O)c2ccc(NS(=O)(=O)CCO)cc2N2CCC3(CC2)CC3)nc(N2CC(C#N)C2)n1 [Example 11-13, N-(2-(3-Cyanoazetidin-1-yl)-6-methylpyrimidin-4-yl)-4-((2-hydroxyethyl)sulfonamido)-2-(6-azaspiro[2.5]octan-6-yl)benzamide] | 67 |
| Cc1cc(NC(=O)c2ccc(NS(=O)(=O)C[C@@H](C)O)cc2N2CCC3(CC2)CC3)nc(N2CCO[C@H](C)C2)n1 [Example 6-27-1, 4-(((R)-2-Hydroxypropoyl)sulfonamido)-N-(6-methyl-2-((R)-2-methylmorpholino)pyrimidin-4-yl)-2-(6-azaspiro[2.5]octan-6-yl)benzamide] | 162 |
| C[C@@H]1CN(c2nccc(NC(=O)c3cc(F)c(NS(=O)(=O)CCO)cc3N3CCC4(CC3)CC4)n2)CCO1 [Example 9-1, (R)-5-Fluoro-4-((2-hydroxyethyl)sulfonamido)-N-(2-(2-methylmorpholino)pyrimidin-4-yl)-2-(6-azaspiro[2.5]octan-6-yl)benzamide] | 78 |
| Cc1cc(NC(=O)c2ccc(NS(=O)(=O)[C@H]3CCOC3)cc2N2CCC3(CC2)CC3)nc(N2CCC(F)(F)CC2)n1 [Example 11-72, (S)-N-(2-(4,4-Difluoropiperidin-1-yl)-6-methylpyrimidin-4-yl)-2-(6-azaspiro[2.5]octan-6-yl)-4-((tetrahydrofuran)-3-sulfonamido)benzamide] | 135 |
| Cc1cc(NC(=O)c2ccc(NS(=O)(=O)CCO)cc2N2CCC3(CC2)CC3)nc(N2CCC23COC3)n1 [Example 11-9, 4-((2-Hydroxyethyl)sulfonamido)-N-(6-methyl-2-(6-oxa-1-azaspiro[3.3]heptan-1-yl)pyrimidin-4-yl)-2-(6-azaspiro[2.5]octan-6-yl)benzamide] | 128 |
| Cc1cc(NC(=O)c2ccc(NS(=O)(=O)CCO)cc2N2CCC3(CC2)CC3)nc(N2CCOC(C)(C)C2)n1 [Example 11-46, N-(2-(2,2-Dimethylmorpholino)-6-methylpyrimidin-4-yl)-4-((2-hydroxyethyl)sulfonamido)-2-(6-azaspiro[2.5]octan-6-yl)benzamide] | 150 |
| Cc1cc(NC(=O)c2ccc(S(=O)(=O)NCCO)cc2N2CCC3(CC2)CC3)nc(N2CCC(F)(F)CC2)n1 [Example 17-3, N-(2-(4,4-Difluoropiperidin-1-yl)-6-methylpyrimidin-4-yl)-4-(N-(2-hydroxyethyl)sulfamoyl)-2-(6-azaspiro[2.5]octan-6-yl)benzamide] | 63 |
| Cc1cc(NC(=O)c2ccc(NS(=O)(=O)CCO)cc2N2CCC3(CC2)CC3)nc(N2CC(F)(F)C2)n1 [Example 7, N-(2-(3,3-Difluoroazetidin-1-yl)-6-methylpyrimidin-4-yl)-4-((2-hydroxyethyl)sulfonamido)-2-(6-azaspiro[2.5]octan-6-yl)benzamide] | 23 |
| Cc1cc(NC(=O)c2ccc(NS(=O)(=O)C3CCCC3)cc2N2CCC3(CC2)CC3)nc(N2CCC(F)(F)CC2)n1 [Example 6-10, 4-(Cyclopentanesulfonamido)-N-(2-(4,4-difluoropiperidin-1-yl)-6-methylpyrimidin-4-yl)-2-(6-azaspiro[2.5]octan-6-yl)benzamide] | 2420 |
| Cc1cc(NC(=O)c2ccc(S(=O)(=O)NC3(C)COC3)cc2N2CCC3(CC2)CC3)nc(NC(C)(C)CO)n1 [Example 1-7, N-(2-((1-Hydroxy-2-methylpropan-2-yl)amino)-6-methylpyrimidin-4-yl)-4-(N-(3-methyloxetan-3-yl)sulfamoyl)-2-(6-azaspiro[2.5]octan-6-yl)benzamide] | 168 |
| Cc1cc(NC(=O)c2ccc(NS(=O)(=O)CCO)cc2N2CCC3(CC2)CC3)nc(N2CCCC(F)(F)C2)n1 [Example 11-39, N-(2-(3,3-Difluoropiperidin-1-yl)-6-methylpyrimidin-4-yl)-4-((2-hydroxyethyl)sulfonamido)-2-(6-azaspiro[2.5]octan-6-yl)benzamide] | 45 |
| O=C(Nc1ccnc(N2CCC(F)(F)CC2)n1)c1ccc(S(=O)(=O)NCCO)cc1N1CCC2(CC1)CC2 [Example 17-4, N-(2-(4,4-Difluoropiperidin-1-yl)pyrimidin-4-yl)-4-(N-(2-hydroxyethyl)sulfamoyl)-2-(6-azaspiro[2.5]octan-6-yl)benzamide] | 23 |
| Cc1cc(NC(=O)c2ccc(NS(=O)(=O)CCO)cc2N2CCC3(CC2)CC3)nc(N2CCC3(CC2)CC3)n1 [Example 11-31, 4-((2-Hydroxyethyl)sulfonamido)-N-(6-methyl-2-(6-azaspiro[2.5]octan-6-yl)pyrimidin-4-yl)-2-(6-azaspiro[2.5]octan-6-yl)benzamide] | 146 |
| COc1cc(C(=O)Nc2cc(C)nc(N3CCC(F)(F)CC3)n2)c(N2CCC3(CC2)CC3)cc1NS(=O)(=O)CCO [Example 6-36, N-(2-(4,4-Difluoropiperidin-1-yl)-6-methylpyrimidin-4-yl)-4-((2-hydroxyethyl)sulfonamido)-5-methoxy-2-(6-azaspiro[2.5]octan-6-yl)benzamide] | 114 |
| Cc1cc(NC(=O)c2ccc(NS(=O)(=O)[C@@H](C)CO)cc2N2CCC3(CC2)CC3)nc(N2CC(F)(F)C2)n1 [Example 11-77, (S)-N-(2-(3,3-Difluoroazetidin-1-yl)-6-methylpyrimidin-4-yl)-4-((2-hydroxy-1-methylethyl)sulfonamido)-2-(6-azaspiro[2.5]octan-6-yl)benzamide] | 34 |
| Cc1cc(NC(=O)c2ccc(S(=O)(=O)NCC(C)(C)O)cc2N2CCC3(CC2)CC3)nc(N2CCC(F)(F)CC2)n1 [Example 17-8, N-(2-(4,4-Difluoropiperidin-1-yl)-6-methylpyrimidin-4-yl)-4-(N-(2-hydroxy-2-methylpropyl)sulfamoyl)-2-(6-azaspiro[2.5]octan-6-yl)benzamide] | 286 |
| Cc1cc(NC(=O)c2ccc(S(C)(=O)=O)cc2N2CCC3(CC2)CC3)nc(NC[C@@H](C)O)n1 [Example 1-4, (R)-N-(2-((2-Hydroxypropyl)amino)-6-methylpyrimidin-4-yl)-4-(methylsulfonyl)-2-(6-azaspiro[2.5]octan-6-yl)benzamide] | 580 |
| Cc1cc(NC(=O)c2ccc(NS(=O)(=O)[C@H](C)CO)cc2N2CCC3(CC2)CC3)nc(N2CCC(F)CC2)n1 [Example 6-25-2, (R)-N-(2-(4-Fluoropiperidin-1-yl)-6-methylpyrimidin-4-yl)-4-((2-hydroxy-1-methylethyl)sulfonamido)-2-(6-azaspiro[2.5]octan-6-yl)benzamide] | 41 |
| Cc1cc(NC(=O)c2ccc(S(C)(=O)=O)cc2N2CCC3(CC2)CC3)nc(N[C@@H](C)CO)n1 [Example 1-2, (S)-N-(2-((1-Hydroxypropan-2-yl)amino)-6-methylpyrimidin-4-yl)-4-(methylsulfonyl)-2-(6-azaspiro[2.5]octan-6-yl)benzamide] | 491 |
| CC1(NS(=O)(=O)c2ccc(C(=O)Nc3ccnc(C(C)(C)O)n3)c(N3CCC4(CC3)CC4)c2)COC1 [Example 2, N-(2-(2-Hydroxypropan-2-yl)pyrimidin-4-yl)-4-(N-(3-methyloxetan-3-yl)sulfamoyl)-2-(6-azaspiro[2.5]octan-6-yl)benzamide] | 143 |

— US11236069B2, “KIF18A inhibitors” (AMGEN INC., priority 2018, dated 2022)
